Laboratory results taken from patent US10953004B2, “Combination therapy for proliferative diseases” (Avexxin AS, priority 2016, dated 2021).

Tested on: MDA-MB-468 cell line
Assay: Resazurin viability assay
Assay type: cell-based, human
Details: MDA-MB-468 cells
Method: Cell Culture. The MDA-MB-468 cell line was from ATCC. This cell line was established from a pleural effusion of patient with metastatic breast adenocarcinoma. The cells were maintained in RPMI medium supplemented with 10% (v/v) FBS, 0.3 mg/mL L-glutamine, and 0.1 mg/mL gentamicin at 37° C. in 5% CO2. Sub-culture using trypsin-EDTA was performed every 3-4 days with a split ratio of 1:3-1:6 to ensure actively proliferating cells. Resazurin Viability Assay. Cells were seeded in fully supplemented medium at a density of 7 000 cells per well in 96 well plates. After 24 hrs of cultivation, when the cells were 60% confluent, the medium was replaced with serum free medium to ensure synchronization of the cells and to increase cell sensitivity to treatment. Following 16 hrs of serum starvation, the medium was replaced with fresh serum free medium with or without Compound […], Norway), and NVP-BEZ235 (Cayman Chemicals, US) or solvent (DMSO, Sigma Aldrich, US). The cells were observed under the microscope to evaluate possible morphology changes and signs of stress before the addition of resazurin according to the manufacturers instructions (RnD Systems, UK). Resazurin was metabolized for 2 hrs (37° C., 5% CO2) before fluorescence was read at 544 nm excitation and 590 nm emission wavelengths (BioTek Synergy HT).

`Cn1c(=O)n(-c2ccc(C(C)(C)C#N)cc2)c2c3cc(-c4cnc5ccccc5c4)ccc3ncc21` [BEZ235] was tested, and the cytotoxicity at 5 µM (Homo sapiens, serum free medium, 5 μM of each inhibitor, 24 hrs of treatment, read-out: reduction of viability) was roughly 30%, the “toxicity to the cells, each inhibitor alone (initial experiments)” value (25-100 μM, results not shown) was “toxic” and the “signs of cellular stress or cytotoxicity, each inhibitor alone (initial experiments)” value (doses 1-5 μM, results not shown) was “little or no signs of cellular stress of cytotoxicity”.
